{
  "source": "patent US8580773B2",
  "about": "“Small-molecule inhibitors of the androgen receptor” (The Regents of the University of California, priority 2008, dated 2013)",
  "key": {"endogenous AR [1]": {"target": "T1, endogenous AR (Homo sapiens, UniProt P10275)", "T1 construct": "that each express endogenous AR; endogenous in cells; host or cells: LAPC4", "T1 sequence (P10275 1-920)": "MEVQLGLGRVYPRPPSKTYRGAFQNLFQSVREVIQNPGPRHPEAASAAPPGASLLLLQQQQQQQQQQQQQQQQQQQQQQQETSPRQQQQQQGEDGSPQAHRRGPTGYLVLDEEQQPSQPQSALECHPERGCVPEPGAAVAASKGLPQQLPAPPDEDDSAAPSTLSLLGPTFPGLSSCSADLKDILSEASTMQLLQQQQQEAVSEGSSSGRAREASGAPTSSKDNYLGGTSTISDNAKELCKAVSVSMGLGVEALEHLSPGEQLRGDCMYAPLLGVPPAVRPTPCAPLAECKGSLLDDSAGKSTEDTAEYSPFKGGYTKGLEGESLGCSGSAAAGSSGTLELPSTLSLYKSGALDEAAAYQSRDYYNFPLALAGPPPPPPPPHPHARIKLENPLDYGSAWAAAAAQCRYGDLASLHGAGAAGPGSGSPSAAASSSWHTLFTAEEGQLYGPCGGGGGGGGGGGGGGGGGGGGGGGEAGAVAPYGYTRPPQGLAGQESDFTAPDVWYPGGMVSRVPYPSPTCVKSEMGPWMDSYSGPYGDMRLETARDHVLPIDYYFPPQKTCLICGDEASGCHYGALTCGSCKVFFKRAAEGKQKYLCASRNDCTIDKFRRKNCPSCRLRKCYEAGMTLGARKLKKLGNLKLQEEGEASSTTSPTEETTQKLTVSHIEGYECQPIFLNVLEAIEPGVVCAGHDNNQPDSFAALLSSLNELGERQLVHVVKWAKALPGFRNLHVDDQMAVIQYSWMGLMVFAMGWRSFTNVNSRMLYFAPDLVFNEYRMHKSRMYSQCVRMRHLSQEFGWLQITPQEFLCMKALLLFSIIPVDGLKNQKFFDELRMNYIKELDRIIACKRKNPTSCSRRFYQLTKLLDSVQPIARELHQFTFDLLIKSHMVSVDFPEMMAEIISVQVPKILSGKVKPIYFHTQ", "type": "cell-based", "settings": "LAPC4, 3 nM DHT plus 1 μM BIC, 100 nM PP or 100 nM HH", "method": "(§1) LAPC4 and LNCaP cells were grown in the presence or absence of 3 nM DHT in charcoal-stripped media, with or without the inhibitors. RNA was harvested using an RNAeasy kit (Qiagen) and reverse transcribed (MMLV-RT, Invitrogen). Real-time PCR was carried out on a 7300 Real Time PCR System (Applied Biosystems) using SYBR green as the detecting dye and Rox as the reference dye. The androgen responsive genes kalikrein 3, or PSA (KLK3) [Cleutjens, K. B., et al., Two androgen response regions cooperate in steroid hormone regulated activity of the prostate-specific antigen promoter. J Biol Chem, 1996. 271(11): p. 6379-88; Nelson, P. S., et al., The program of androgen-responsive genes in neoplastic prostate epithelium. Proc Natl Acad Sci USA, 2002. 99(18): p. 11890-5), metalloproteinase 16 (MMP16) (Nelson, P. S., et al., The program of androgen-responsive genes in neoplastic prostate epithelium. Proc Natl Acad Sci USA, 2002. 99(18): p. 11890-5), transmembrane protease serine 2 (TMPRSS2) (Nelson, P. S., et al., The program of androgen-responsive genes in neoplastic prostate epithelium. Proc Natl Acad Sci USA, 2002. 99(18): p. 11890-5; […] Vaarala, M. H., et al., Expression of transmembrane serine protease TMPRSS2 in mouse and human tissues. J Pathol, 2001. 193(1): p. 134-40), FK506-binding immunophilin 51 (FKBP51) (Nelson, P. S., et al., The program of androgen-responsive genes in neoplastic prostate epithelium. Proc Natl Acad Sci USA, 2002. 99(18): p. 11890-5; Amler, L. C., et al., Dysregulated expression of androgen-responsive and nonresponsive genes in the androgen-independent prostate cancer xenograft model CWR22-R1. Cancer Res, 2000. 60(21): p. 6134-41; Velasco, A. M., et al., Identification and validation of novel androgen-regulated genes in prostate cancer. Endocrinology, 2004. 145(8): p. 3913-24; Magee, J. A., et al., Direct, androgen receptor-mediated regulation of the FKBP5 gene via a distal enhancer element. Endocrinology, 2006. 147(1): p. 590-8), G-protein coupled receptor RDC1 homolog, or chemokine orphan receptor 1 (RDC-1) (Nelson, P. S., et al., The program of androgen-responsive genes in neoplastic prostate epithelium. Proc Natl Acad Sci USA, 2002. 99(18): p. 11890-5), NK homeobox family member 3 (NRx3.1) (Nelson, P. S., et al., The program of androgen-responsive genes in neoplastic prostate epithelium. Proc Natl Acad Sci USA, 2002. 99(18): p. 11890-5; Bieberich, C. J., et al., Prostate-specific and androgen-dependent expression of a novel homeobox gene. J Biol Chem, 1996. 271(50): p. 31779-82; […]) were all normalized to the transcription of the housekeeping ribosomal gene (RPL19). All samples were done in triplicate and separately normalized."}, "endogenous AR [2]": {"target": "T2, endogenous AR (Homo sapiens, UniProt P10275, T878A)", "T2 construct": "that each express endogenous AR; endogenous in cells; host or cells: LNCaP", "T2 sequence (P10275 whole entry T878A)": "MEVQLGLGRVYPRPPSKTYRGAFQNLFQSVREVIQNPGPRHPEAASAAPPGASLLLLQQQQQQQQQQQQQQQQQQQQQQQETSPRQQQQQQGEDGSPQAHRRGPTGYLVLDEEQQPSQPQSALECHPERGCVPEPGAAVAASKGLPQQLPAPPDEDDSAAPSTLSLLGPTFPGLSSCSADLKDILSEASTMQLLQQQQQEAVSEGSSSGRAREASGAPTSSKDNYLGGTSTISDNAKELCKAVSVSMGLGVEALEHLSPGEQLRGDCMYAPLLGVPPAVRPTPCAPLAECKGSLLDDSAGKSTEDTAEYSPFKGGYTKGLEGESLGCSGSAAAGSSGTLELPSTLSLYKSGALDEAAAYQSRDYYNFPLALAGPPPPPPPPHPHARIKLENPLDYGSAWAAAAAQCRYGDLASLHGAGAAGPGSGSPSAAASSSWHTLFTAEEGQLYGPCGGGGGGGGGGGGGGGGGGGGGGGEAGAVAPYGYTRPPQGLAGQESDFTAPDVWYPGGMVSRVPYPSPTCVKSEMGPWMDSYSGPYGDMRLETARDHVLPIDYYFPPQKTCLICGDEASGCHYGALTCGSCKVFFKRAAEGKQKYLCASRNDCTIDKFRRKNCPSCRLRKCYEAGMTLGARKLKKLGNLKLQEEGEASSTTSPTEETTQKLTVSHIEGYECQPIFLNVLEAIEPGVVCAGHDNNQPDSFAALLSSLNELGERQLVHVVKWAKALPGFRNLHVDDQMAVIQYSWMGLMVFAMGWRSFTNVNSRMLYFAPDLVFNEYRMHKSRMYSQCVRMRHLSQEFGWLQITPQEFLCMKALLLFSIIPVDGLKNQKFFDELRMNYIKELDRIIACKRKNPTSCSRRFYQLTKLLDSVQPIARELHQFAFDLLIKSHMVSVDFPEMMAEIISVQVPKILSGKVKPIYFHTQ", "type": "cell-based", "settings": "LNCaP, 3 nM DHT plus 1 μM BIC, 100 nM PP or 100 nM HH", "method": "as §1"}},
  "note": "Structures can show the parent of a compound that is named as a salt.",
  "data": [
    {"smiles": "Cc1nccc2c1[nH]c1cc(O)ccc12", "note": "[HH, harmol hydrochloride]", "values": [
      {"measurement": "Nkx3.1 transcription (normalized to RPL19)", "setting": "endogenous AR [1]; No DHT = 1, 3 nM DHT = 1.08", "value": 1.55},
      {"measurement": "TMPRSS2 transcription (normalized to RPL19)", "setting": "endogenous AR [1]; No DHT = 1, 3 nM DHT = 1.13", "value": 1.86},
      {"measurement": "KLK3 transcription (normalized to RPL19)", "setting": "endogenous AR [1]; No DHT = 1, 3 nM DHT = 1.97", "value": 1.64},
      {"measurement": "FKBP51 transcription (normalized to RPL19)", "setting": "endogenous AR [1]; No DHT = 1, 3 nM DHT = 21.4", "value": 11.96},
      {"measurement": "RDC1 transcription (normalized to RPL19)", "setting": "endogenous AR [1]; androgen-repressed gene, No DHT = 1, 3 nM DHT = 0.63", "value": 2.88},
      {"measurement": "MMP16 transcription (normalized to RPL19)", "setting": "endogenous AR [1]; androgen-repressed gene, No DHT = 1, 3 nM DHT = 0.71", "value": 4.74},
      {"measurement": "KLK3 transcription (normalized to RPL19)", "setting": "endogenous AR [2]; No DHT = 1, 3 nM DHT = 1.89", "value": 1.46},
      {"measurement": "Nkx3.1 transcription (normalized to RPL19)", "setting": "endogenous AR [2]; No DHT = 1, 3 nM DHT = 2.00", "value": 1.28},
      {"measurement": "FKBP51 transcription (normalized to RPL19)", "setting": "endogenous AR [2]; No DHT = 1, 3 nM DHT = 2.15", "value": 1.90},
      {"measurement": "TMPRSS2 transcription (normalized to RPL19)", "setting": "endogenous AR [2]; No DHT = 1, 3 nM DHT = 3.70", "value": 1.22},
      {"measurement": "MMP16 transcription (normalized to RPL19)", "setting": "endogenous AR [2]; androgen-repressed gene, No DHT = 1, 3 nM DHT = 0.61", "value": 1.02},
      {"measurement": "RDC1 transcription (normalized to RPL19)", "setting": "endogenous AR [2]; androgen-repressed gene, No DHT = 1, 3 nM DHT = 0.66", "value": 1.22}
    ]}
  ]
}
